# Results taken from patent US20190358264A1, “METHODS OF TREATING DISEASES ASSOCIATED WITH ILC2 CELLS” (Limm Therapeutics, SA, priority 2016, published 2019).
# System: intestine and lung-derived ILC2s
# Assay: In vitro activation of purified ILC2s with NmU23, type 2 cytokine mRNA by quantitative RT-PCR
# Type: cell-based, mouse
# Protocol: For in vitro experiments, purified lung and small intestine lamina propria ILC2s were FBS starved for 2 hours prior to stimulation and cultured in complete RPMI (supplemented with 10% foetal bovine serum (FBS), 1% hepes, sodium pyruvate, glutamine, streptomycin and penicillin) at 37° C. For mRNA analysis, ILC2s were stimulated overnight with recombinant mouse Neuromedin U 23 peptide (NmU23, 100 ng/mL; Phoenix pharmaceuticals). Both NmU23-stimulated and control ILC2s were cultured in the presence of IL-2 and IL-7 (10 ng/mL; Peprotech). ILC2s were lysed using RLT buffer (Qiagen). For cytokine protein analysis, ILC2s were incubated exclusively with brefeldin A (eBioscience) for 12 hours prior to intracellular staining. For in vivo experiments, B6 mice were injected intraperitoneal with NmU23 peptide (2 g/day) during Nippostrongylus brasiliensis infection or with a single dose of NmU23 (20 μg) and analyzed after 8 hours. Control mice were treated with PBS alone. Total RNA was extracted using RNeasy micro kit (Qiagen) according to the manufacturer's protocol. RNA concentration was determined using Nanodrop Spectrophotometer (Nanodrop Technologies). Quantitative real-time RT-PCR was performed as previously described^5,8. Hprt1, Gapdh and Eef1a1 were used as housekeeping genes. For TaqMan assays (Applied Biosystems) RNA was retro-transcribed using a High Capacity RNA-to-cDNA Kit (Applied Biosystems), followed by a pre-amplification PCR using TaqMan PreAmp Master Mix (Applied Biosystems). TaqMan Gene Expression Master Mix (Applied Biosystems) was used in real-time PCR. TaqMan Gene Expression Assays (Applied Biosystems) were the following: Hprt1 Mm00446968_m1; Gapdh Mm99999915_g 1; Eef1a1 Mm01973893_g 1; Il5 Mm00439646_m1; Il13 Mm00434204_m1; Areg Mm01354339_m1; 114 Mm00445259_m1; Csf2 Mm01290062_m1; Gata3 Mm00484683_m1; Rora Mm01173766_m1; Nmu Mm00479868_m1; Nmur1 Mm04207994_m1. Real-time PCR analysis was performed using StepOne Real-Time PCR system (Applied Biosystems).
substance,measurement,setting,value
"recombinant mouse Neuromedin U 23 peptide (FKAEYQSPSVGQSKGYFLFRPRN; listed as Mus musculus) [NmU23, NMUR1 agonist neuropeptide, Phoenix pharmaceuticals]",innate Il5 and Il13 gene expression in intestinal ILC2,NmU23 100 ng/mL in vitro (FIG. 9f),immediate innate Il5 and Il13 upregulation
same,"expression of type 2 cytokines genes Il5, Il13, Areg and Csf2 in ILC2s","NmU23 100 ng/mL overnight, with IL-2 and IL-7, intestine and lung ILC2s",prompt and very potent expression
same,expression of the master type 2 transcription factor Gata3 in ILC2s,"NmU23 100 ng/mL overnight, intestine and lung ILC2s",increased expression
